From US12552694B2, “Use of trivalent metals to enhance aquatic pesticide efficacy, surface water, and sediment quality while minimizing risk to aquatic biota” (SePRO Corporation, priority 2022, dated 2026)
Where two headings read alike, the source gives them in different places. Each block holds one compound with its values, some of them ahead of it.

Assays:
[1] = Example 1: capacity of additives to bind dissolved La and Ce (ICP-OES); assay type: physicochemical
[2] = Example 4: bound La and Ce over time and final pH (FIG. 1); assay type: physicochemical; settings: after the final samples (30 minutes), continuously stirred; control 5.6
duckweed (Lemna spp.) = assay: Example 7: duckweed plant coverage (Canopeo) after herbicides with and without La/Ce; assay type: in vivo; settings: for Plant coverage, 3 Days Post: 3 days post treatment; for Plant coverage, 5 Days Post: 5 days post treatment; for Plant coverage, 7 Days Post: 7 days post treatment; for Plant coverage, Pre-Treat.: prior to treatments (baseline)
duckweed = settings: 24 hours
Protocol: In one exemplary experiment, 16-oz cups were filled with 400 mL of well water containing approximately 100 μg-P/L as phosphate. One cup was left as the no biomass control and approximately 8 g (±0.5 g) of actively growing duckweed were added to the other cups. One cup was left as a control and diquat (as Weedtrine® D) was added to each of the other cups at the following rates: 50 μg/L. 100 μg/L, 200 μg/L, and 300 μg/L. These samples were then placed under artificial lighting with a scheduled 16-hour light period and 8-hour dark period. […] Samples then were briefly stirred and allowed to sit under the lighting. After 2 hours, water samples were collected with a syringe, filtered with a 0.22 μm nylon filter, acidified with nitric acid, and analyzed for lanthanum and cerium concentration.

[3] = test sample: La/Ce stock in 50 mL deionized water with 90-110 mg additive

Compound: O=C([O-])[O-].[Ca+2] [Calcium carbonate, calcium carbonate]
pH [1]: 7.5

Compound: [Ca+2].[OH-].[OH-] [Calcium hydroxide, calcium hydroxide]
pH [1]: 14
pH of beaker [2]: 8.7 (±0.1)

Compound: Cc1nn(-c2cc(CC(Cl)C(=O)O)c(Cl)cc2F)c(=O)n1C(F)F (centres unmarked) [Carfentrazone only, carfentrazone]
% Change in plant coverage (duckweed (Lemna spp.); 3 Days Post vs pre-treatment): 13%
% Change in plant coverage (duckweed (Lemna spp.); 5 Days Post vs pre-treatment): −29%
% Change in plant coverage (duckweed (Lemna spp.); 7 Days Post vs pre-treatment): −17%
Plant coverage, 3 Days Post (duckweed (Lemna spp.)): 39%
Plant coverage, 5 Days Post (duckweed (Lemna spp.)): 24%
Plant coverage, 7 Days Post (duckweed (Lemna spp.)): 29%
Plant coverage, Pre-Treat. (duckweed (Lemna spp.)): 34%

Compound: c1cc[n+]2c(c1)-c1cccc[n+]1CC2 [Diquat only, diquat]
Perceived injury (duckweed; 50 μg/L diquat): 20%
Perceived injury (duckweed; 100 μg/L diquat): 40%
Perceived injury (duckweed; 200 μg/L diquat): 50%
Perceived injury (duckweed; 300 μg/L diquat): 80%
% Change in plant coverage (duckweed (Lemna spp.); 3 Days Post vs pre-treatment): −75%
% Change in plant coverage (duckweed (Lemna spp.); 5 Days Post vs pre-treatment): −89%
% Change in plant coverage (duckweed (Lemna spp.); 7 Days Post vs pre-treatment): −92%
Plant coverage, 3 Days Post (duckweed (Lemna spp.)): 10%
Plant coverage, 5 Days Post (duckweed (Lemna spp.)): 4%
Plant coverage, 7 Days Post (duckweed (Lemna spp.)): 3%
Plant coverage, Pre-Treat. (duckweed (Lemna spp.)): 40%

pH [1, 3]: 7
Compound: NC(=O)CC[C@H](N)C(=O)O [Glutamine, glutamine]

Compound: [O]=[Mg] [Magnesium oxide, magnesium oxide]
pH [1]: 7.5
pH of beaker [2]: 8.0 (±0.1)

Compound: O.O=C([O-])C(=O)[O-].[K+].[K+] [Potassium oxalate (monohydrate), potassium oxalate (monohydrate)]
pH [1]: 7

pH [1]: 7
Compound: C=CC(=O)[O-].[Na+] [Sodium acrylate, sodium acrylate]

pH [1]: 8
Compound: O=C([O-])CC(O)(CC(=O)[O-])C(=O)[O-].[Na+].[Na+].[Na+] [Sodium citrate, sodium citrate]

Compound: [Na+].[OH-] [Sodium hydroxide, sodium hydroxide]
pH [1]: 14

pH [1, 3]: 13
Compound: O=[Si]([O-])[O-].[Na+].[Na+] [Sodium metasilicate (anhydrous), sodium metasilicate (anhydrous)]

pH [1]: 6.5
Compound: O=C([O-])C(O)C(O)C(=O)[O-].[Na+].[Na+] (centres unmarked) [Sodium tartrate, sodium tartrate]

Compound: copper ethanolamine [Copper ethanolamine only]
% Change in plant coverage (duckweed (Lemna spp.); 3 Days Post vs pre-treatment): −2%
% Change in plant coverage (duckweed (Lemna spp.); 5 Days Post vs pre-treatment): −89%
% Change in plant coverage (duckweed (Lemna spp.); 7 Days Post vs pre-treatment): −89%
Plant coverage, 3 Days Post (duckweed (Lemna spp.)): 35%
Plant coverage, 5 Days Post (duckweed (Lemna spp.)): 4%
Plant coverage, 7 Days Post (duckweed (Lemna spp.)): 4%
Plant coverage, Pre-Treat. (duckweed (Lemna spp.)): 35%

Compound: fluridone [Fluridone only]
% Change in plant coverage (duckweed (Lemna spp.); 3 Days Post vs pre-treatment): −8%
% Change in plant coverage (duckweed (Lemna spp.); 5 Days Post vs pre-treatment): −15%
% Change in plant coverage (duckweed (Lemna spp.); 7 Days Post vs pre-treatment): −14%
Plant coverage, 3 Days Post (duckweed (Lemna spp.)): 23%
Plant coverage, 5 Days Post (duckweed (Lemna spp.)): 22%
Plant coverage, 7 Days Post (duckweed (Lemna spp.)): 22%
Plant coverage, Pre-Treat. (duckweed (Lemna spp.)): 25%
